Read-outs that look alike come from different tables or passages of the source.
Columns and labels:
22RV1 = test: In vitro inhibition of human tumor cells, 22RV1, SRB method
Description: (§4) 1.1.2 Cell culture method: Cells were cultured in complete medium, 37° C., 5% CO2, saturated humidity to log growth phase (adherent cells generally attended to complete fusion), and cells were collected for subsequent experiments (adherent cells were first digested with trypsin/ethylene diamine tetraacetic acid (EDTA) to remove adherent).
(§5) 1.1.3 96-well cell culture plates (hereinafter referred to as 96-well plates) were inoculated with a certain number of cells (see Table 1 for details). The cells were allowed to adhere overnight. […] Finally, the total amount of cell protein in the assay wells was determined by the SRB method, or the cell viability was determined by the MTT method:
(§6) The culture medium was aspirated from the wells and the cells were fixed for 1 hour or more by adding 10% trichloroacetic acid. Trichloroacetic acid was removed. The resultant was washed with H2O and stained with 0.4% SRB for 15 to 30 minutes. Excess SRB was removed. The resultant was washed with 1% acetic acid. The protein-bound SRB was dissolved by adding 10 mM of 100 μl Tris (trishydroxymethylaminomethane). Tests were carried out at the wavelength of 570 nm.
(§7) 1.1.4 dilution and addition of β-glucuronidase: 1 to 2 mg of β-glucuronidase was weighed and dissolved in PBS to give a 2 mg/ml of stock solution. […] 80 μl of enzyme working solution was added to the enzyme-containing assay wells. The amount of β-glucuronidase was 1 μg/wells. No enzyme-containing assay wells were added to the 80 μl of complete medium.
(§8) The assay wells were charged with 20 μl of 10× compound working solution. The final volume was 200 μl per well. The DMSO concentration was 0.1%.
(§9) 1.1.6 Compound inhibition activity calculation: The test included a compound test group, a compound-free positive solvent control group (PC) and a compound-free negative solvent control group (NC). […] The average inhibition rate and the standard deviation (SD) were obtained from the repeated test wells. The average inhibition rate was plotted on the basis of the compound concentration as an abscissa and distributed in the form of logarithms. The curve was fitted to the Logistic 4 parameter equation. […] The test was generally repeated to obtain 3 valid results.

NCI-H460 = test: In vitro inhibition of human tumor cells, NCI-H460, MTT method; assay type: cell-based
human colon cancer SW620 = settings: 30 mg/kg i.v. qw × 2, SW620 model
Description: An allogeneic transplantation model of human colon cancer SW620 was established in nude mice subcutaneously using a tumor block inoculation method. When the tumor volume of the allogeneic transplantation was about 100 to 300 mm^3 and remained stable, the experimental animals were randomly divided into groups according to the size of the tumor volume (day 0) by using a remainder method. The tumor volume was measured 2 to 3 times a week. At the end of the dosage period, the experimental animals were sacrificed. The subcutaneous tumors were peeled and weighed. The anti-tumor activity of the drug against the model was evaluated based on tumor volume and tumor weight-related data.
(§10) The calculation formula of the tumor volume was: Volume=0.5×long diameter×short diameter×short diameter.
(§11) V0 was the resulting tumor volume measured at the time of dosing in groups (i.e., d0) and Vt was the tumor volume at each measurement.
TRTV was the average value of RTV of the subject, and CRTV was the average RTV of the model control group.
(§12) Wn: average body weight of each group of experimental animals on day n, and W0: average body weight of each group of experimental animals on day 0.

BEL-7404 = test: In vitro inhibition of human tumor cells, BEL-7404, SRB method
Description: as §4, §5, §6, §7, §8, §9

MDA-MB-468 = test: In vitro inhibition of human tumor cells, MDA-MB-468, SRB method
Description: as §4, §5, §6, §7, §8, §9

A375 = test: In vitro inhibition of human tumor cells, A375, SRB method
Description: as §4, §5, §6, §7, §8, §9

NCI-N87 = test: In vitro inhibition of human tumor cells, NCI-N87, MTT method; assay type: cell-based
human colon cancer LoVo = settings: 30 mg/kg i.v. qw × 2, LoVo model
Description: An allogeneic transplantation model of human colon cancer LoVo was established in nude mice subcutaneously using a tumor block inoculation method. When the tumor volume of the allogeneic transplantation was about 100 to 300 mm^3 and kept stable, the experimental animals were randomly divided into groups according to the tumor volume (day 0) by using a remainder method. The tumor volume was measured 2 to 3 times a week. At the end of the dosage period, the experimental animals were sacrificed. The subcutaneous tumors were peeled and weighed. The anti-tumor activity of the drug against the model was evaluated based on tumor volume and tumor weight-related data.
as §10
V0 was the resulting tumor volume measured at the time of dosing in groups (i.e., d0) and Vt is the tumor volume at each measurement.
(§13) T was the subject and C was the model control.
TRTV was the average RTV of the subject and CRTV was the average RTV of the model control group.
as §12

HCT116 = test: In vitro inhibition of human tumor cells, HCT116, MTT method; assay type: cell-based
BxPC-3 = test: In vitro inhibition of human tumor cells, BxPC-3, MTT method; assay type: cell-based
SW620 = test: In vitro inhibition of human tumor cells, SW620, SRB method; assay type: cell-based
Description: (§1) The cells were allowed to adhere overnight.
(§2) Trichloroacetic acid was removed. […] Excess SRB was removed.
(§3) The DMSO concentration was 0.1%.

LoVo = test: In vitro inhibition of human tumor cells, LoVo, SRB method; assay type: cell-based
Description: as §1, §2, §3

Fadu = test: In vitro inhibition of human tumor cells, Fadu, MTT method; assay type: cell-based
[1] = test system: human colon cancer HCT116; settings: 30 mg/kg i.v. qw × 2
Description: When the tumor volume was more than 600 mm^3 and stable growth was maintained, the experimental animals were randomly divided by the remainder method and administered according to the size of the tumor volume. […] The subcutaneous tumors were stripped and weighed.
T was the subject and C is the model control.
Tumor volume growth was observed on a regular basis after completion of dosing.

[2] = test system: human colon cancer HCT116; test: Growth of human colon cancer HCT116 in allogeneic transplantation model; assay type: in vivo, nude mice
Description: (§14) When the tumor volume of the allogeneic transplantation was about 100 to 300 mm^3 and remained stable, the experimental animals were randomly divided into groups according to the size of the tumor volume (day 0) by using a remainder method. The tumor volume was measured 2 to 3 times a week. At the end of the dosage period, the experimental animals were sacrificed. The subcutaneous tumors were peeled and weighed. The anti-tumor activity of the drug against the model was evaluated based on tumor volume and tumor weight-related data.
as §10, §11
(§15) TRTV was the average RTV of the subject, and CRTV was the average RTV of the model control group.
as §12

[3] = test system: human pancreatic cancer BxPC-3; test: Growth of human pancreatic cancer BxPC-3 in allogeneic transplantation model; assay type: in vivo, nude mice; settings: 25 mg/kg i.v. qw × 2, BxPC-3 model
Description: as §14, §10, §11, §13, §15, §12
(§16) In the large tumor efficacy test after the second grouping of the G5 group, since the number of samples in each group of G6.1 and G6.4 was less than three, the relevant data of the large tumor efficacy test were statistically analyzed among groups using the T-Test method.

[4] = test system: human small cell lung cancer NCI-H446; settings: 20 mg/kg i.v. qw × 2, NCI-H446 model
Description: An allogeneic transplantation model of human small cell lung cancer NCI-H446 was established in nude mice subcutaneously using a tumor block inoculation method. When the tumor volume of the allogeneic transplantation was about 100 to 300 mm^3 and remained stable, the experimental animals were randomly divided into groups according to the size of the tumor volume (day 0, i.e., d0) using a remainder method. The tumor volume was measured 2 to 3 times a week. At the end of the dosage period, the experimental animals were sacrificed. The subcutaneous tumors were peeled and weighed. The anti-tumor activity of the drug against the model was evaluated based on tumor volume and tumor weight-related data.
as §10, §11, §13, §15, §12

[5] = test system: human gastric cancer NCI-N87; test: Growth of human gastric cancer NCI-N87 in allogeneic transplantation model; assay type: in vivo, nude mice
Description: The tumor volume was measured 2 to 3 times per week. […] The subcutaneous tumors were peeled and weighed.
The calculation formula of the tumor volume: Volume=0.5×long diameter×short diameter×short diameter.

[6] = test system: human pancreatic cancer BxPC-3; settings: 30 mg/kg i.v. qw × 2
Description: as §14, §10, §11, §13, §15, §12, §16

[7] = No βGU (direct effects of compound on cells)
[8] = HCT116 large tumor after irinotecan
[9] = BxPC-3 large tumors after irinotecan

## (2S,3S,4S,5R,6S)-6-(3-((1-(6-((4′-((E)-(8-amino-1-hydroxy-5,7-disulfonicnaphthalen-2-yl)diazenyl)-[1,1′-biphenyl]-4-yl)amino)-6-oxohexyl)-1H-1,2,3-triazol-4-yl)methoxy)-4-((((S)-4,11-diethyl-4-hydroxy-3,14-dioxo-3,4,12,14-tetrahydro-1H-pyrano[3′,4′:6,7]indolazino[1,2-b]quinolin-9-yl)oxy)methyl)phenoxy)-3,4,5-trihydroxytetrahydro-2H-pyran-2-carboxylate trisodium [Example 78]
22RV1; Adding βGU
  IC50: 7.6 nM
22RV1; No βGU
  IC50: 267 nM
NCI-H460; Adding βGU
  IC50: 9.6 nM
NCI-H460; No βGU
  IC50: 530 nM
Human colon cancer SW620
  T/C (%): 0.6%
  Tumor inhibition rate (%): 99.4%
BEL-7404; Adding βGU
  IC50: 35 nM
BEL-7404; No βGU
  IC50: 458 nM
MDA-MB-468; Adding βGU
  IC50: 3.3 nM
MDA-MB-468; No βGU
  IC50: 28 nM
A375; Adding βGU
  IC50: 22 nM
A375; No βGU
  IC50: 984 nM
NCI-N87; Adding βGU
  IC50: 26 nM
NCI-N87; No βGU
  IC50: 170 nM
Human colon cancer LoVo
  T/C (%): 15.8%
  Tumor inhibition rate (%): 88.2%
HCT116; Adding βGU (β-glucuronidase)
  IC50: 2.4 nM
HCT116; [7]
  IC50: 42 nM
BxPC-3; Adding βGU
  IC50: 13 nM
BxPC-3; No βGU
  IC50: 610 nM
SW620; Adding βGU
  IC50: 7.3 nM
SW620; No βGU
  IC50: 329 nM
LoVo; Adding βGU
  IC50: 11 nM
LoVo; No βGU
  IC50: 301 nM
Fadu; Adding βGU
  IC50: 6.9 nM
Fadu; No βGU
  IC50: 346 nM

## CCc1c2c(nc3ccc(OCc4ccc(O[C@@H]5O[C@H](C(=O)[O-])[C@@H](O)[C@H](O)[C@H]5O)cc4OCc4cn(CCCCCC(=O)Nc5ccc(-c6ccc(/N=N/c7ccc8c(S(=O)(=O)[O-])cc(S(=O)(=O)[O-])c(N)c8c7O)c(C)c6)cc5C)nn4)cc13)-c1cc3c(c(=O)n1C2)COC(=O)[C@]3(O)CC.[Na+].[Na+].[Na+] [Example 7, (2S,3S,4S,5R,6S)-6-(3-((1-(6-((4′-((E)-(8-amino-1-hydroxy-5,7-disulfonicnaphthalen-2-yl)diazenyl)-3,3′-dimethyl-[1,1′-biphenyl]-4-yl)amino)-6-oxohexyl)-1H-1,2,3-triazol-4-yl)methoxy)-4-((((S)-4,11-diethyl-4-hydroxy-3,14-dioxy-3,4,12,14-tetrahydro-1H-pyrano[3′,4′:6,7]indolazino[1,2-b]quinolin-9-yl)oxy)methyl)phenoxy)-3,4,5-trihydroxytetrahydro-2H-pyran-2-carboxylate trisodium]
22RV1; Adding βGU
  IC50: 5.2 nM
22RV1; No βGU
  IC50: 147 nM
[1]; [8]
  Relative volume RTV (X ± S.D.): 1.10 ± 0.16
  T/C (%): 29.6%
  Tumor inhibition rate (%): 73.6%
  Tumor weight (g, X ± S.D.): 0.720 ± 0.492 g
[1]; HCT116 tumors more than 600 mm^3 after irinotecan 100 mg/kg qw×2
  Final body weight change (%): −10.7%
NCI-H460; Adding βGU
  IC50: 14 nM
NCI-H460; No βGU
  IC50: 219 nM
Human colon cancer SW620
  T/C (%): 0.6%
  Tumor inhibition rate (%): 99.7%
Human colon cancer SW620; nude mouse
  Final body weight change (%): −4.6%
BEL-7404; Adding βGU
  IC50: 33 nM
BEL-7404; No βGU
  IC50: 514 nM
MDA-MB-468; Adding βGU
  IC50: 6.8 nM
MDA-MB-468; No βGU
  IC50: 70 nM
[2]; 10 mg/kg i.v. qw × 2
  T/C (%): 13.3%
  Tumor inhibition rate (%): 90.0%
[2]; 10 mg/kg i.v. qw × 2, nude mouse
  Final body weight change (%): −12.8%
A375; Adding βGU
  IC50: 10 nM
A375; No βGU
  IC50: 600 nM
NCI-N87; Adding βGU
  IC50: 24 nM
NCI-N87; No βGU
  IC50: 1140 nM
Human colon cancer LoVo
  T/C (%): 12.3%
  Tumor inhibition rate (%): 91.1%
Human colon cancer LoVo; nude mouse
  Final body weight change (%): 0.0%
[3]
  Relative volume RTV (X ± S.D.): 0.23 ± 0.08
  T/C (%): 4.9%
  Tumor inhibition rate (%): 96.7%
  Tumor weight (g, X ± S.D.): 0.055 ± 0.037 g
[3]; nude mouse
  Final body weight change (%): 2.9%
HCT116; Adding βGU (β-glucuronidase)
  IC50: 3.9 nM
HCT116; [7]
  IC50: 147 nM
BxPC-3; Adding βGU
  IC50: 27 nM
BxPC-3; No βGU
  IC50: 1110 nM
SW620; Adding βGU
  IC50: 6.9 nM
SW620; No βGU
  IC50: 306 nM
LoVo; Adding βGU
  IC50: 19 nM
LoVo; No βGU
  IC50: 253 nM
[4]
  Relative volume RTV (X ± S.D.): 0.11 ± 0.02
  T/C (%): 1.5%
  Tumor inhibition rate (%): 98.9%
  Tumor weight (g, X ± S.D.): 0.011 ± 0.005 g
[4]; nude mouse
  Final body weight change (%): 4.1%
[5]; 20 mg/kg i.v. qw × 2
  Relative volume RTV (X ± S.D.): 0.69 ± 0.15
  T/C (%): 13.6%
  Tumor inhibition rate (%): 94.2%
  Tumor weight (g, X ± S.D.): 0.069 ± 0.009 g
[5]; 20 mg/kg i.v. qw × 2, nude mouse
  Final body weight change (%): 13.6%
Fadu; Adding βGU
  IC50: 8.5 nM
Fadu; No βGU
  IC50: 242 nM
[6]; [9]
  Relative volume RTV (X ± S.D.): 0.28 ± 0.03
  T/C (%): 7.7%
  Tumor inhibition rate (%): 94.2%
  Tumor weight (g, X ± S.D.): 0.174 ± 0.164 g
[6]; BxPC-3 tumors more than 600 mm^3 after irinotecan 100 mg/kg i.p. qw × 2
  Final body weight change (%): −0.3%

From patent US20250325676A1, “CAMPTOTHECIN PRODRUG AND PHARMACEUTICAL COMPOSITION THEREOF” (TIANJIN HEMAY ONCOLOGY PHARMACEUTICAL CO., LTD, priority 2022, published 2025)
